These results are taken from patent publication US20260374773A1, “MULTI-CYCLIC IRAK AND FLT3 INHIBITING COMPOUNDS AND USES THEREOF” (CHILDREN'S HOSPITAL MEDICAL CENTER, priority 2022, published 2026).

The target of one test is T1, IRAK4 (Homo sapiens, UniProt Q9NWZ3).
T1 sequence (Q9NWZ3 1-460): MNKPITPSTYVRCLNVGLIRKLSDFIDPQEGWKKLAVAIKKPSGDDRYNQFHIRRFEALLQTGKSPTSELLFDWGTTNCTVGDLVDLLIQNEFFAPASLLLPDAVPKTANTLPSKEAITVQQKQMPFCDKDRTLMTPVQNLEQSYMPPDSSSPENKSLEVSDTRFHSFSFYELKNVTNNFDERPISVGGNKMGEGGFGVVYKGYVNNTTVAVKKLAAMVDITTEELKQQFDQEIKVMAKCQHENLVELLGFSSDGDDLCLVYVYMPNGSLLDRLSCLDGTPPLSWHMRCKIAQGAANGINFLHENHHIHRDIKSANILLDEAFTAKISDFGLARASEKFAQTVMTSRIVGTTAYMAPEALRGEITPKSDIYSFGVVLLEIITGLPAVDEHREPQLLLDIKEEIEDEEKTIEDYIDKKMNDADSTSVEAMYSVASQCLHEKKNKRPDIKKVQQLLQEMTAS
Description: NanoBRET target engagement assay in HEK-293 cells, IRAK4. To be noted: live HEK-293 cells, 1 h. It counts as cell-based. An excerpt: (§1) The NanoBRET assay measures kinase engagement in real time in the context of the intact cell. Unlike the previously described biochemical kinase assay methodology, the NanoBRET assay measures the binding and activity characteristics under equilibrium conditions using full-length kinases in the presence of cellular concentrations of ATP in live, uncompromised cells. As such, the assay provides a more relevant assessment of kinase potency and selectivity that would be expected to be observed in the native cellular environment, where potency is often considerably lower than that observed in the isolated biochemical assays (Vasta, J. D. et al., (2018) Cell Chem. Biol. 25, 206-214). The assay uses a Kinase-NanoLuc® fusion vector expressing a kinase protein to which a luciferase tag has been added, a cell-permeant fluorescent NanoBRET™ tracer, a NanoLuc® substrate, and an extracellular NanoLuc® inhibitor. Upon expression of the luciferase-tagged kinase, cells will produce a strong BRET signal only in the presence of the NanoBRET™ tracer. The extracellular NanoLuc® inhibitor ensures that the BRET signal observed emanates only from live cells. Because the BRET signal has tight distance constraints, addition of the test compound will decrease the BRET signal if the compound competes with the NanoBRET™ tracer for binding to the kinase domain. Under the appropriate tracer conditions established by the manufacturer, quantitative intracellular affinity and relative potency can then be determined using Mass Action model equations.
(§2) HEK-293 cells were purchased from ATCC. FuGENEHD Transfection Reagent, Kinase-NanoLucfusion plasmids, Transfection Carrier DNA, NanoBRETTracers and dilution buffer, NanoBRETNano-Glo Substrate, Extracellular NanoLucInhibitor were obtained from Promega.
(§3) Assays were conducted following Promega assay protocol with some modifications. HEK-293 Cells were transiently transfected with Kinase-NanoLucFusion Vector DNA by FuGENEHD Transfection Reagent. Testing compounds were delivered into 384 well assay plate by Echo 550 (LabcyteInc, Sunnyvale, CA). Transfected cells were harvested and mixed with NanoBRETTracer Reagent and dispensed into 384 well plates and incubated at 37 °C in 5% CO2 cell culture incubator for 1 hour. The NanoBRETNano-Glo Substrate plus Extracellular NanoLucInhibitor Solution were added into the wells of the assay plate and incubated for 2-3 minutes at room temperature. The donor emission wavelength (460 nm) and acceptor emission wavelength (600 nm) were measured in the En Visionplate reader. The BRET Ratios were calculated.
(§4) BRET Ratio=[(Acceptor sample÷Donor sample)−(Acceptor no-tracer control÷Donor no-tracer control)].
(§5) The IC50 values of compounds were calculated with Prism GraphPad program.
(§6) • 1). Cultivate HEK-293 cells (70-80% confluence) appropriately prior to assay. Trypsinize and collect HEK-293 cells. • 2). Prepare lipid:DNA complexes as follows: • a. Prepare a 10 μg/ml solution of DNA in Opti-MEM without serum that consists of the following ratios of carrier DNA and DNA encoding NanoLuc® fusion. 9.0 μg/mL of Transfection Carrier DNA, 1.0 μg/mL of NanoLuc fusion vector DNA and 1 mL of Opti-MEM without phenol red. Mix thoroughly. • b. Add 30 μl of FuGENE HD Transfection Reagent into each milliliter of DNA mixture to form lipid:DNA complex. • c. Mix by inversion 10 times. • d. Incubate at ambient temperature for 20 minutes to allow complexes to form. • 3). In a sterile, conical tube, mix 1 part of lipid:DNA complex with 20 parts of HEK-293 cells in suspension. Mix gently by inversion 5 times. • 4). Dispense cells+lipid:DNA complex into a sterile tissue culture dish and incubate for 22-24 hours.
(§7) Each test compound is delivered from the compound source plate to the wells of 384-well white NBS plate by Echo 550.
(§8) 3. Preparation of Cells with NanoBRET™ Tracer Reagent • 1). Remove medium from dish with transfected HEK-293 cells via aspiration, trypsinize and allow cells to dissociate from the dish. • 2). […]
(Bioluminescence resonance energy transfer reports proximity on the nanometre scale.)

In another test the target is T2, FLT3 (Homo sapiens, UniProt P36888).
T2 sequence (P36888 27-993): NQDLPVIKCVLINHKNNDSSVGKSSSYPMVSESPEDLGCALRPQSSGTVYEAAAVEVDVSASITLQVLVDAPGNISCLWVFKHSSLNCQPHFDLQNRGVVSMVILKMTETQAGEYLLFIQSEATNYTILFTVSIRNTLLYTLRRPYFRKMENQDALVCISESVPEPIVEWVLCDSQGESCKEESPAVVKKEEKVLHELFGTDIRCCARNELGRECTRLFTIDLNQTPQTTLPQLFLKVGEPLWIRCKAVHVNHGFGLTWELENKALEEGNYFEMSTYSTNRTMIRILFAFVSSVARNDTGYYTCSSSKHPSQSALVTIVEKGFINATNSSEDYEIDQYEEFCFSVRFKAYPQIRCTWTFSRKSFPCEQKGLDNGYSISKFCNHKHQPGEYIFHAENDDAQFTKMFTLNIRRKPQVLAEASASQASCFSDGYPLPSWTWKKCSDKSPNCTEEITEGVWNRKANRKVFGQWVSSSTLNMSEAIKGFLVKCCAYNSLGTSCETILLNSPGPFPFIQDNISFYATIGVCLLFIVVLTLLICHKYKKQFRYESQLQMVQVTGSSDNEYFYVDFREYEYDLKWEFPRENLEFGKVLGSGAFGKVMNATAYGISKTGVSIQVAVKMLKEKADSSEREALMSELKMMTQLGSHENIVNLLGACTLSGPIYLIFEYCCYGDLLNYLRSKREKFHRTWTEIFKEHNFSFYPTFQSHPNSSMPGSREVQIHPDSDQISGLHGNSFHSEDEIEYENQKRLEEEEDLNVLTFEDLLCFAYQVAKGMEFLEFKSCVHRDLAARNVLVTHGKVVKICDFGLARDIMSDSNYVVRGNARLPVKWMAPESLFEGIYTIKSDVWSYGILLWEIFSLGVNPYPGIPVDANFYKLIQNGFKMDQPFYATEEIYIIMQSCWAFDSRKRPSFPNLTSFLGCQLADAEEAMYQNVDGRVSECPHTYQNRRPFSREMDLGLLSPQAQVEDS
The experiment in a line: NanoBRET target engagement assay in HEK-293 cells, FLT3. To be noted: live HEK-293 cells, 1 h. It counts as cell-based.
From the text: as §1, §2, §3, §4, §5, §6, §7, §8

The term IC50 denotes the concentration at which inhibition is half-maximal. Low readings indicate greater potency in that assay, high ones weaker potency in that assay. With `COc1cn2ncc(-c3nc(N[C@H]4CNCC[C@@H]4F)c(F)cc3F)c2nc1C1CC1` [Compound 22, 6-(5-cyclopropyl-6-methoxypyrazolo[1,5-a]pyrimidin-3-yl)-3,5-difluoro-N-((3S,4S)-4-fluoropiperidin-3-yl)pyridin-2-amine], the half-inhibitory concentration (IC50) against IRAK4 (Table 14) and on FLT3 (Table 14) was less than 0.5 nM each time.

As for `COc1cn2ncc(-c3nc(N[C@H]4CNC[C@@H]4F)ncc3F)c2nc1C(C)(C)O` [Compound 5a, 2-(3-(5-fluoro-2-(((3S,4S)-4-fluoropyrrolidin-3-yl)amino)pyrimidin-4-yl)-6-methoxypyrazolo[1,5-a]pyrimidin-5-yl)propan-2-ol], the concentration for half-maximal inhibition (IC50) at IRAK4 (Table 20) amounted to 2 nM; on FLT3 (Table 20), 113 nM.

On to `COc1cn2ncc(-c3nc(N[C@H]4CNCC[C@@H]4F)c(F)cc3F)c2nc1C(C)(C)O` [Compound 13, 2-(3-(3,5-difluoro-6-(((3S,4S)-4-fluoropiperidin-3-yl)amino)pyridin-2-yl)-6-methoxypyrazolo[1,5-a]pyrimidin-5-yl)propan-2-ol], for which the IC50 was less than 0.5 nM against IRAK4 (Table 14) and 4 nM on FLT3 (Table 14).

Regarding `COc1cn2ncc(-c3ccnc(N[C@H]4CNCC[C@@H]4F)n3)c2nc1C(C)(C)O` [Compound 3a, 2-(3-(2-(((3S,4S)-4-fluoropiperidin-3-yl)amino)pyrimidin-4-yl)-6-methoxypyrazolo[1,5-a]pyrimidin-5-yl)propan-2-ol], the IC50 on IRAK4 (Table 20) is 8 nM; at FLT3 (Table 20), 1510 nM.
